In patent publication US10669252B2, “Benzazepine derivative, preparation method, pharmaceutical composition and use thereof” (SHANGHAI DE NOVO PHARMATECH CO., LTD., priority 2016, dated 2020):

What follows are compounds tested against T1, TLR8 (Homo sapiens, UniProt Q9NR97) (assay: TLR8 cell based assay (HEK-BLUE-hTLR8, SEAP reporter linked to NF-κB activation)). Conditions: HEK-BLUE-hTLR8 cells, 24 h treatment, SEAP/QUANTI-Blue readout.
T1 construct: host or cells: HEK293 (HEK-BLUE-hTLR8)
T1 sequence (Q9NR97 27-1041): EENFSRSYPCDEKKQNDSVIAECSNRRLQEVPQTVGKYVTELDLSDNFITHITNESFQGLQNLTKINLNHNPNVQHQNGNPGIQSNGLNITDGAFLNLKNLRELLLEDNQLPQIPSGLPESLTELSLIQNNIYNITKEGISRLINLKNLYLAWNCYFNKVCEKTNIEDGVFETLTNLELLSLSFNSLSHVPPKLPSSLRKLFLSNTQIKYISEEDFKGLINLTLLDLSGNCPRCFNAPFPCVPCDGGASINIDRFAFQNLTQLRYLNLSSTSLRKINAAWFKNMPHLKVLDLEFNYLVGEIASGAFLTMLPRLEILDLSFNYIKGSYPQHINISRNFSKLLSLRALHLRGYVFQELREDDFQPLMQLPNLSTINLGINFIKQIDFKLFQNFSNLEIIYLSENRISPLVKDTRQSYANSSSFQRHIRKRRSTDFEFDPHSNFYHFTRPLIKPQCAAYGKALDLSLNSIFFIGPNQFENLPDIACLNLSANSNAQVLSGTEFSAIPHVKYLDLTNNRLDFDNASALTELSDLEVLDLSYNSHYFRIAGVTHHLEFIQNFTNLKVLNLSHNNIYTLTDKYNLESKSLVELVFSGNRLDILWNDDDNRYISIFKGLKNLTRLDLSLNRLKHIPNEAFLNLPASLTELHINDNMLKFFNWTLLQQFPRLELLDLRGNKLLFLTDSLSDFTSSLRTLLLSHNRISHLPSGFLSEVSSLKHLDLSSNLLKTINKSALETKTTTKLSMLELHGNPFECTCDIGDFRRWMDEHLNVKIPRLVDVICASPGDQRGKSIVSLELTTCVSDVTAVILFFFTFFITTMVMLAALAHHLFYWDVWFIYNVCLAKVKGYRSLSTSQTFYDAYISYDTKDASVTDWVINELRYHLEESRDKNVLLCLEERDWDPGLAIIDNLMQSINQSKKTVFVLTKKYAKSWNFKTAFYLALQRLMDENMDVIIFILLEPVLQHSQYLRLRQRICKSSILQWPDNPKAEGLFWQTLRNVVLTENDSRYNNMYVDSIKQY
Procedure: In this assay, the bioactivity of compound of formula Iw as measured using a cell based assay. The assay was performed in human embryonic kidney cells (HEK293) expressing TLR8 or other TLR family members such as TLR4, TLR7 and TLR9 (for selectivity screens). The activity of specific TLR agonists was assessed using the secretory embryonic alkaline phosphatase (SEAP) reporter gene that is linked to NF-κB activation in response to TLR stimulation. The SEAP activity was measured using the Quanti-Blue substrate (InvivoGen) after TLR agonist treatment.
The detailed experimental method is as follow:
HEK-BLUE-hTLR8 cell line was purchased from InvivoGen. The cells were cultured in Dulbecco's Modified Eagle's Media containing 4.5 g/L […] (Sigma-Aldrich) and 10% FBS. The cells were cultured at 37° C., 95% humidity and 5% CO2.
Test concentrations of the compounds ranged from 0.5 nM to 15 μM with 10 points. A known TLR8 agonist was added as positive control and 1 μl of DMSO was added as negative control.
The cells were prepared as follows: The cells were removed from the incubator and growth medium was discarded. The cells were gently rinsed with pre-warmed 10 ml PBS for a T-150 flask. 12 ml pre-warmed growth medium was added, and the cells were detached by tapping the flask. Cell clumps were dissociated by gently pipetting up and down. The cells were counted. Single cell suspension was prepared at 200,000 cells per ml in growth medium and 200 μl of the cell suspension (40,000 cells per well) were immediately added to each well of the plate. The final DMSO concentration of each well was 0.5%.
The cells were cultured and treated with the compounds at 37° C., 5% CO2 for 24 h.
20 μL of the supernatant of each well were added to 180 μL of QUANTI-Blue, and the plates were incubated at 37° C. for 1.5 hour. Optical density was measured using a spectrophotometer at 650 nm (OD data). Activivation was calculated by using the equation below: Activivation %=(Compound OD mean value−DMSO OD mean value)/(positive control OD mean value−DMSO OD mean value)×100
The data were analyzed using the GraphPad to get EC50 values and fitting dose response curves of the compounds.

Structure (SMILES)	EC50
CCCN(CCC)C(=O)C1=Cc2ccc(-c3ccc4c(=O)[nH]ccc4c3)cc2N=C(N)C1 [Compound 1-1-1]	1000 to 10000 nM
CCCN(CCC)C(=O)C1=Cc2ccc(-c3ccc4c(=O)n(CC)c(C)cc4c3)cc2N=C(N)C1 [Compound 1-2-2]	100 to 1000 nM
CCCN(CCC)C(=O)C1=Cc2ccc(-c3ccc4c(=O)n(CC)ccc4c3)cc2N=C(N)C1 [Compound 1-2-3]	100 to 1000 nM
CCCN(CCC)C(=O)C1=Cc2ccc(-c3ccc4c(=O)n(CC(C)C)ccc4c3)cc2N=C(N)C1 [Compound 1-2-5]	100 to 1000 nM
CCCN(CCC)C(=O)C1=Cc2ccc(-c3ccc4c(=O)n(CCO)ccc4c3)cc2N=C(N)C1 [Compound 1-2-6]	< 100 nM
CCCN(CCC)C(=O)C1=Cc2ccc(-c3ccc4c(=O)n(CCCO)ccc4c3)cc2N=C(N)C1 [Compound 1-2-7]	100 to 1000 nM
CCCN(CCC)C(=O)C1=Cc2ccc(-c3ccc4c(=O)n(CCP(C)(=O)OCC)ccc4c3)cc2N=C(N)C1 (stereo not shown) [Compound 1-2-11]	< 100 nM
CCCN(CCC)C(=O)C1=Cc2ccc(-c3ccc4c(=O)n(CCN(C)C)ccc4c3)cc2N=C(N)C1 [Compound 1-2-12]	100 to 1000 nM
CCCN(CCC)C(=O)C1=Cc2ccc(-c3ccc4c(=O)n(CCNS(N)(=O)=O)ccc4c3)cc2N=C(N)C1 [Compound 1-2-20]	100 to 1000 nM
CCCN(CCC)C(=O)C1=Cc2ccc(-c3ccc4c(=O)n(CC(=O)N(C)C)ccc4c3)cc2N=C(N)C1 [Compound 1-2-24]	< 100 nM
CCCN(CCC)C(=O)C1=Cc2ccc(-c3ccc4c(=O)n(CC(=O)NCC)ccc4c3)cc2N=C(N)C1 [Compound 1-2-25]	< 100 nM
CCCN(CCC)C(=O)C1=Cc2ccc(-c3ccc4c(=O)n(CC(=O)N5CCCC5)ccc4c3)cc2N=C(N)C1 [Compound 1-2-26]	< 100 nM
CCCCn1ccc2cc(-c3ccc4c(c3)N=C(N)CC(C(=O)N(CCC)CCC)=C4)ccc2c1=O [Compound 1-2-27]	100 to 1000 nM
CCCN(CCC)C(=O)C1=Cc2ccc(-c3ccc4c(=O)n(Cc5ccno5)ccc4c3)cc2N=C(N)C1 [Compound 1-2-29]	100 to 1000 nM
CCCN(CCC)C(=O)C1=Cc2ccc(-c3ccc4c(=O)n(Cc5nnc(C)o5)ccc4c3)cc2N=C(N)C1 [Compound 1-2-30]	< 100 nM
CCCN(CCC)C(=O)C1=Cc2ccc(-c3ccc4c(=O)n(Cc5cc[nH]n5)ccc4c3)cc2N=C(N)C1 [Compound 1-2-34]	< 100 nM
CCCN(CCC)C(=O)C1=Cc2ccc(-c3ccc4c(=O)n(CCn5ccnc5)ccc4c3)cc2N=C(N)C1 [Compound 1-2-37]	< 100 nM
CCCN(CCC)C(=O)C1=Cc2ccc(-c3ccc4c(=O)n(Cc5nnn[nH]5)ccc4c3)cc2N=C(N)C1 [Compound 1-2-38]	1000 to 10000 nM
CCCN(CCC)C(=O)C1=Cc2ccc(-c3ccc4c(=O)n(Cc5nnn(C)n5)ccc4c3)cc2N=C(N)C1 [Compound 1-2-39]	< 100 nM
CCCN(CCC)C(=O)C1=Cc2ccc(-c3ccc4c(=O)n(Cc5ncnn5C)ccc4c3)cc2N=C(N)C1 [Compound 1-2-41]	< 100 nM
CCCN(CCC)C(=O)C1=Cc2ccc(-c3ccc4c(=O)n(CC(=O)O)ccc4c3)cc2N=C(N)C1 [Compound 1-2-42]	1000 to 10000 nM
CCCN(CCC)C(=O)C1=Cc2ccc(-c3ccc4c(=O)n(Cc5cnccn5)ccc4c3)cc2N=C(N)C1 [Compound 1-2-44]	< 100 nM
CCCN(CCC)C(=O)C1=Cc2ccc(-c3ccc4c(=O)n(Cc5nc(OC)cc(OC)n5)ccc4c3)cc2N=C(N)C1 [Compound 1-2-46]	< 100 nM
CCCN(CCC)C(=O)C1=Cc2ccc(-c3ccc4c(=O)n(CCc5cnccn5)ccc4c3)cc2N=C(N)C1 [Compound 1-2-47]	100 to 1000 nM

Structure (SMILES)	EC50
CCCN(CCC)C(=O)C1=Cc2ccc(-c3ccc4c(=O)n(Cc5nccn5C(C)C)ccc4c3)cc2N=C(N)C1 [Compound 1-2-49]	< 100 nM
CCCN(CCC)C(=O)C1=Cc2ccc(-c3ccc4c(=O)n(CCc5ccccn5)ccc4c3)cc2N=C(N)C1 [Compound 1-2-50]	100 to 1000 nM
CCCN(CCC)C(=O)C1=Cc2ccc(-c3ccc4ccn(CCO)c(=O)c4c3)cc2N=C(N)C1 [Compound 1-2-51]	1000 to 10000 nM
CCCN(CCC)C(=O)C1=Cc2ccc(-c3ccc4c(c3)CN(CC)C4=O)cc2N=C(N)C1 [Compound 1-3-1]	< 100 nM
CCCN(CCC)C(=O)C1=Cc2ccc(-c3ccc4c(c3)CCN(CC)C4=O)cc2N=C(N)C1 [Compound 1-4-1]	100 to 1000 nM
CCCN(CCC)C(=O)C1=Cc2ccc(-c3cc4c(=O)n(CC)ccc4n3C)cc2N=C(N)C1 [Compound 1-5-1]	1000 to 10000 nM
CCCN(CCC)C(=O)C1=Cc2ccc(-c3cc4c(=O)n(CC)ccc4s3)cc2N=C(N)C1 [Compound 1-5-2]	1000 to 10000 nM
CCCN(CCC)C(=O)C1=Cc2ccc(-c3cnc4c(c3)CN(CCO)C4=O)cc2N=C(N)C1 [Compound 1-6-1]	100 to 1000 nM
CCCN(CCC)C(=O)C1=Cc2ccc(-c3ccc4c(n3)CN(CCO)C4=O)cc2N=C(N)C1 [Compound 1-6-2]	100 to 1000 nM
CCCN(CCC)C(=O)C1=Cc2ccc(-c3ccc4c(=O)n(CC(N)=O)cnc4c3)cc2N=C(N)C1 [Compound 1-7-1]	100 to 1000 nM
CCCN(CCC)C(=O)C1=Cc2ccc(-c3ccc4c(=O)n(CC(=O)NC)cnc4c3)cc2N=C(N)C1 [Compound 1-7-3]	< 100 nM
CCCN(CCC)C(=O)C1=Cc2ccc(-c3ccc4c(=O)n(CC(C)(C)O)cnc4c3)cc2N=C(N)C1 [Compound 1-7-5]	< 100 nM
CCCN(CCC)C(=O)C1=Cc2ccc(-c3ccc4c(=O)n(CCNS(C)(=O)=O)cnc4c3)cc2N=C(N)C1 [Compound 1-7-6]	100 to 1000 nM
CCCN(CCC)C(=O)C1=Cc2ccc(-c3ccc4c(=O)n(CCCS(C)(=O)=O)ncc4c3)cc2N=C(N)C1 [Compound 1-8-6]	< 100 nM
CCCN(CCC)C(=O)C1=Cc2ccc(-c3ccc4c(=O)n(CCC(N)=O)ncc4c3)cc2N=C(N)C1 [Compound 1-8-7]	< 100 nM
CCCN(CCC)C(=O)C1=Cc2ccc(-c3ccc4c(=O)n(CCNS(C)(=O)=O)ncc4c3)cc2N=C(N)C1 [Compound 1-8-8]	< 100 nM
CCCN(CCC)C(=O)C1=Cc2ccc(-c3ccc4c(=O)n(CCOC)ncc4c3)cc2N=C(N)C1 [Compound 1-8-9]	< 100 nM
CCCN(CCC)C(=O)C1=Cc2ccc(-c3ccc4c(=O)n(Cc5nccs5)ncc4c3)cc2N=C(N)C1 [Compound 1-8-10]	< 100 nM
CCCN(CCC)C(=O)C1=Cc2ccc(-c3ccc4c(=O)n(CC[S+](C)[O-])ncc4c3)cc2N=C(N)C1 (stereo not shown) [Compound 1-8-11]	< 100 nM
CCCN(CCC)C(=O)C1=Cc2ccc(-c3ccc4c(=O)n(CCn5cccn5)ncc4c3)cc2N=C(N)C1 [Compound 1-8-13]	< 100 nM
CCCN(CCC)C(=O)C1=Cc2ccc(-c3ccc4c(=O)n(CCP(=O)(OCC)OCC)ncc4c3)cc2N=C(N)C1 [Compound 1-8-14]	< 100 nM
CCCN(CCC)C(=O)C1=Cc2ccc(-c3ccc4c(=O)n(Cc5nc(C)cc(C)n5)ncc4c3)cc2N=C(N)C1 [Compound 1-8-17]	< 100 nM
CCCN(CCC)C(=O)C1=Cc2ccc(-c3ccc4c(=O)n(CCP(C)(=O)OCC)ncc4c3)cc2N=C(N)C1 (stereo not shown) [Compound 1-8-18]	< 100 nM

Same assay, conditions: HEK-BLUE-hTLR8 cells; bound stated

Structure (SMILES)	EC50
CCCN(CCC)C(=O)C1=Cc2ccc(-c3ccc4c(=O)n(Cc5nnn(C)n5)ccc4c3)cc2N=C(N)C1 [Compound 1-2-39]	< 10 nM
CCCN(CCC)C(=O)C1=Cc2ccc(-c3ccc4c(=O)n(Cc5ncnn5C)ccc4c3)cc2N=C(N)C1 [Compound 1-2-41]	< 10 nM
CCCN(CCC)C(=O)C1=Cc2ccc(-c3ccc4c(=O)n(CCCS(C)(=O)=O)ncc4c3)cc2N=C(N)C1 [Compound 1-8-6]	< 10 nM
CCCN(CCC)C(=O)C1=Cc2ccc(-c3ccc4c(=O)n(CCOC)ncc4c3)cc2N=C(N)C1 [Compound 1-8-9]	< 10 nM
CCCN(CCC)C(=O)C1=Cc2ccc(-c3ccc4c(=O)n(Cc5nc(C)cc(C)n5)ncc4c3)cc2N=C(N)C1 [Compound 1-8-17]	< 10 nM
